Reference: BindingDB's records for doi:10.1021/jm00062a001 (Upjohn Laboratories, 1993)

Assays:
[1] = molecular target: 5-hydroxytryptamine receptor 1A (Bos taurus); experiment: Binding affinity against 5-hydroxytryptamine 1A receptor from bovine hippocampus, used [3H]8-OH-DPAT as radioligand
[2] = as above

Cc1[nH]c2cccc3c2c1C[C@@H]1C3C[C@H](NC(=O)C(C)(C)C)CN1C (some centres not stated) [SDZ-208-911]
Ki [1]: 19 nM

CCCN1CC[C@H]2c3c(cccc3OC)CC[C@H]21 [(3aS,9bR) 9-Methoxy-3-propyl-2,3,3a,4,5,9b-hexahydro-1H-benzo[e]indole]
Ki [2]: 4.4 nM
